pEC50: −log10 of the molar value.

The assay has as its system HBV. Put plainly: HBV inhibition assay: anti-HBV activity in vitro in HepG2.2.15 cells (extracellular HBV DNA by qPCR). It counts as cell-based. To be noted: Hepatitis B virus, 120 h, five days after compound treatment, extracellular HBV DNA in culture supernatant by qPCR, concentration at which HBV replication is inhibited by 50%. The text has this: Example 441: HBV Inhibition Assays
Cell Line and Culture Conditions:
HepG2.2.15 is a stably-transfected cell line containing the HBV genome. It is derived from the hepatoblastoma cell line Hep G2 (American Type Culture Collection, ATCC® HB-8065™) by the published procedures described in reference: MA Selles et al. Proc. Natl. Acad. Sci. USA 1987, 84, 1005-1009. The cell line was maintained in Dulbecco's modified Eagle's medium (DMEM)-F12 medium supplemented with 10% fetal bovine serum, 100 U/mL penicillin, 100 μg/mL streptomycin, and 0.5 mg/mL of G418.
Anti-HBV Activity In Vitro:
HepG2.2.15 cells were seeded into 96-well plates (3×10^4 cells in 100 μL media per well) and incubated overnight at 37° C. The test compounds were serially half-log diluted in DMSO, then diluted 100 times in culture media. 100 μL diluted compounds were added into the plates to reach 0.5% final concentration of DMSO in every well. Five days after compound treatment, culture supernatant was collected for further analysis.
For quantitative PCR detection of extracellular HBV DNA, culture supernatant was processed by Proteinase K digestion. After heat inactivation of the enzyme, the samples were subjected to HBV DNA quantification by qPCR. The effective compound concentration at which
HBV replication is inhibited by 50% (EC50) was determined.
As for `Cc1cnn(-c2cnn3c2CN(C(=O)Nc2ccc(F)c(Cl)c2)CC3)c1` [Example 171, N-(3-chloro-4-fluoro-phenyl)-3-(4-methylpyrazol-1-yl)-6,7-dihydro-4H-pyrazolo[1,5-a]pyrazine-5-carboxamide], the negative-log EC50 (pEC50) is 7.35.
As to `CC1Cn2ncc(-c3ccc(F)cc3F)c2CN1C(=O)Nc1ccnc(F)c1` (centres unmarked) [Example 174, 3-(2,4-difluorophenyl)-N-(2-fluoro-4-pyridyl)-6-methyl-6,7-dihydro-4H-pyrazolo[1,5-a]pyrazine-5-carboxamide], the pEC50 is 7.18. The pEC50 values of the last two compounds are within 0.2 log units of each other.
Regarding `Cc1cc(NC(=O)N2CCn3ncc(-c4ccc(F)cc4)c3C2)ccn1` [Example 176, 3-(4-fluorophenyl)-N-(2-methyl-4-pyridyl)-6,7-dihydro-4H-pyrazolo[1,5-a]pyrazine-5-carboxamide], the negative logarithm of the EC50 (pEC50) is 7.28. The pEC50 values of the last two compounds are within 0.2 log units of each other.
Turning to `CC1Cn2ncc(-c3ccc(F)cc3F)c2CN1C(=O)Nc1cc(F)c(F)c(F)c1` (centres unmarked) [Example 178, 3-(2,4-difluorophenyl)-6-methyl-N-(3,4,5-trifluorophenyl)-6,7-dihydro-4H-pyrazolo[1,5-a]pyrazine-5-carboxamide], the pEC50 was 7.89.
Consider `CC1Cn2ncc(N3CCCC3=O)c2CN1C(=O)Nc1cc(F)c(F)c(F)c1` (centres unmarked) [Example 183, 6-methyl-3-(2-oxopyrrolidin-1-yl)-N-(3,4,5-trifluorophenyl)-6,7-dihydro-4H-pyrazolo[1,5-a]pyrazine-5-carboxamide], for which the pEC50 was 7.17.
Turning to `C[C@H]1Cn2ncc(-c3ccc(F)cn3)c2CN1C(=O)Nc1cc(F)c(F)c(F)c1` [Example 198, (6S)-3-(5-fluoro-2-pyridyl)-6-methyl-N-(3,4,5-trifluorophenyl)-6,7-dihydro-4H-pyrazolo[1,5-a]pyrazine-5-carboxamide], the pEC50 is 7.52.
`Cc1cnn(-c2cnn3c2CN(C(=O)Nc2ccc(F)c(Cl)c2)C(C)C3)c1` (centres unmarked) [Example 199, N-(3-chloro-4-fluoro-phenyl)-6-methyl-3-(4-methylpyrazol-1-yl)-6,7-dihydro-4H-pyrazolo[1,5-a]pyrazine-5-carboxamide]: the pEC50 was 7.52.
As to `CC1Cn2ncc(-n3cc(C#N)cn3)c2CN1C(=O)Nc1ccc(F)c(Cl)c1` (centres unmarked) [Example 200, N-(3-chloro-4-fluoro-phenyl)-3-(4-cyanopyrazol-1-yl)-6-methyl-6,7-dihydro-4H-pyrazolo[1,5-a]pyrazine-5-carboxamide], the pEC50 is 7.42.
For `CC1Cn2ncc(-n3cc(F)cn3)c2CN1C(=O)Nc1ccc(F)c(Cl)c1` (centres unmarked) [Example 201, N-(3-chloro-4-fluoro-phenyl)-3-(4-fluoropyrazol-1-yl)-6-methyl-6,7-dihydro-4H-pyrazolo[1,5-a]pyrazine-5-carboxamide] the value was 7.89; for `CC1Cn2ncc(N3CCCC3=O)c2CN1C(=O)Nc1ccc(F)c(Cl)c1` (centres unmarked) [Example 202, N-(3-chloro-4-fluoro-phenyl)-6-methyl-3-(2-oxopyrrolidin-1-yl)-6,7-dihydro-4H-pyrazolo[1,5-a]pyrazine-5-carboxamide], 7.29; for `CC1Cn2ncc(N3CCCC3=O)c2CN1C(=O)Nc1ccc(F)c(C(F)(F)F)c1` (centres unmarked) [Example 203, N-[4-fluoro-3-(trifluoromethyl)phenyl]-6-methyl-3-(2-oxopyrrolidin-1-yl)-6,7-dihydro-4H-pyrazolo[1,5-a]pyrazine-5-carboxamide], 7.01.
In turn, `CC1Cn2ncc(C3CCCC3)c2CN1C(=O)Nc1cc(F)c(F)c(F)c1` (centres unmarked) [Example 204, 3-cyclopentyl-6-methyl-N-(3,4,5-trifluorophenyl)-6,7-dihydro-4H-pyrazolo[1,5-a]pyrazine-5-carboxamide] gave a pEC50 of 7.44.
For `CC1Cn2ncc(N3CC(C)(C)CC3=O)c2CN1C(=O)Nc1ccc(F)c(Cl)c1` (centres unmarked) [Example 212, N-(3-chloro-4-fluoro-phenyl)-3-(4,4-dimethyl-2-oxo-pyrrolidin-1-yl)-6-methyl-6,7-dihydro-4H-pyrazolo[1,5-a]pyrazine-5-carboxamide] the value was 7.48; for `O=C(Nc1ccc(F)c(Cl)c1)N1CCn2ncc(N3CC4CC4C3)c2C1` (centres unmarked) [Example 215, 3-[3-azabicyclo[3.1.0]hexan-3-yl]-N-(3-chloro-4-fluoro-phenyl)-6,7-dihydro-4H-pyrazolo[1,5-a]pyrazine-5-carboxamide], 7.00; for `CC1Cn2ncc(-c3ccc(F)cc3F)c2CN1C(=O)Nc1ccnc(C(F)F)c1` (centres unmarked) [Example 218, N-[2-(difluoromethyl)-4-pyridyl]-3-(2,4-difluorophenyl)-6-methyl-6,7-dihydro-4H-pyrazolo[1,5-a]pyrazine-5-carboxamide], 7.85.
Compound `C[C@H]1Cn2ncc(N3CC(C#N)CC3=O)c2CN1C(=O)Nc1ccc(F)c(Cl)c1` (stereo partly drawn) [Example 229, (6S)—N-(3-chloro-4-fluoro-phenyl)-3-(4-cyano-2-oxo-pyrrolidin-1-yl)-6-methyl-6,7-dihydro-4H-pyrazolo[1,5-a]pyrazine-5-carboxamide] showed a pEC50 of 7.33.
Regarding `CC1CN(C(=O)Nc2ccc(F)c(Cl)c2)Cc2c(-c3ccc(F)cc3)cnn21` (centres unmarked) [Example 230, N-(3-chloro-4-fluoro-phenyl)-3-(4-fluorophenyl)-7-methyl-6,7-dihydro-4H-pyrazolo[1,5-a]pyrazine-5-carboxamide], the negative logarithm of the EC50 (pEC50) was 7.28.
For the compound `C[C@H]1Cn2ncc(N3CCCC3=O)c2CN1C(=O)Nc1cc(F)c(F)c(Cl)c1` [Example 231, (6S)—N-(3-chloro-4,5-difluoro-phenyl)-6-methyl-3-(2-oxopyrrolidin-1-yl)-6,7-dihydro-4H-pyrazolo[1,5-a]pyrazine-5-carboxamide], the negative-log EC50 (pEC50) is 7.60. Compared with the last compound, the pEC50 is 0.32 log units higher.
For `C[C@H]1Cn2ncc(N3CC(O)CC3=O)c2CN1C(=O)Nc1ccc(F)c(Cl)c1` (stereo partly drawn) [Example 232, (6S)—N-(3-chloro-4-fluoro-phenyl)-3-(4-hydroxy-2-oxo-pyrrolidin-1-yl)-6-methyl-6,7-dihydro-4H-pyrazolo[1,5-a]pyrazine-5-carboxamide] the value was 7.31.
On to `C[C@H]1Cn2ncc(N3CCOCC3=O)c2CN1C(=O)Nc1cc(F)c(F)c(F)c1` [Example 233, (6S)-6-methyl-3-(3-oxomorpholin-4-yl)-N-(3,4,5-trifluorophenyl)-6,7-dihydro-4H-pyrazolo[1,5-a]pyrazine-5-carboxamide], for which the negative-log EC50 (pEC50) was 7.12.
Under `C[C@H]1Cn2ncc(N3CCOCC3=O)c2CN1C(=O)Nc1cc(F)c(F)c(Cl)c1` [Example 235, (6S)—N-(3-chloro-4,5-difluoro-phenyl)-6-methyl-3-(3-oxomorpholin-4-yl)-6,7-dihydro-4H-pyrazolo[1,5-a]pyrazine-5-carboxamide] stands 7.41; under `CC1Cn2ncc(N3CCOC3=O)c2CN1C(=O)Nc1ccc(F)c(Cl)c1` (centres unmarked) [Example 237, N-(3-chloro-4-fluoro-phenyl)-6-methyl-3-(2-oxooxazolidin-3-yl)-6,7-dihydro-4H-pyrazolo[1,5-a]pyrazine-5-carboxamide], 7.13; under `COC1CC(=O)N(c2cnn3c2CN(C(=O)Nc2ccc(F)c(Cl)c2)[C@@H](C)C3)C1` (stereo partly drawn) [Example 238, (6S)—N-(3-chloro-4-fluoro-phenyl)-3-(4-methoxy-2-oxo-pyrrolidin-1-yl)-6-methyl-6,7-dihydro-4H-pyrazolo[1,5-a]pyrazine-5-carboxamide], 7.68.

In general, pEC50 refers to the negative decadic logarithm of the EC50, by convention in mol/L.
